Here are results for one molecule from ChEMBL document CHEMBL2021922, “Identification of a Potent and Selective Cannabinoid CB1 Receptor Antagonist from Auxarthron reticulatum” (ACS Med Chem Lett, 2011).

Experiment [1] concerns the target Cannabinoid receptor 2 (Homo sapiens) (UniProt P34972). Nature of the experiment: Displacement of [3H]CP55940 from human recombinant CB2 receptor expressed in CHO cells at 10 uM after 2 hrs by liquid scintillation counting. Type of experiment: cell-based. (In general: Loss of bound radioactivity is the signal in a displacement assay; it reports binding, not function.)

In experiment [2] the target is Cannabinoid receptor 1 (Homo sapiens, UniProt P21554). Kind of experiment: Displacement of [3H]CP55940 from human recombinant CB1 receptor expressed in CHO cells after 2 hrs by liquid scintillation counting. It counts as cell-based.

Active and inactive are the calls of the source. No cut-off for these calls is given here.

Sequence of Cannabinoid receptor 1 (P21554 whole entry): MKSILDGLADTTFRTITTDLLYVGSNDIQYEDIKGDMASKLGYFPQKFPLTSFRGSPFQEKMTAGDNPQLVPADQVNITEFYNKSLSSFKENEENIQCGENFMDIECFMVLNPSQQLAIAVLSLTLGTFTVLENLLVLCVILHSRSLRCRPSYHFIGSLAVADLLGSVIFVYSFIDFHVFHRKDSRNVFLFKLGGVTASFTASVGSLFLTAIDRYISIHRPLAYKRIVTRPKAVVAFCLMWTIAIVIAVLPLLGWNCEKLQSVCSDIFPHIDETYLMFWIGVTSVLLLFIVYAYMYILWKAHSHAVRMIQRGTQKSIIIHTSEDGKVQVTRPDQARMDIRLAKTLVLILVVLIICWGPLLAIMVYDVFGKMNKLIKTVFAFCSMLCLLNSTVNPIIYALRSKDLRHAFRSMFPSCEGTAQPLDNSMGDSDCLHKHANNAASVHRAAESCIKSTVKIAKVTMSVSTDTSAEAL
Sequence of Cannabinoid receptor 2 (Homo sapiens) (P34972 whole entry): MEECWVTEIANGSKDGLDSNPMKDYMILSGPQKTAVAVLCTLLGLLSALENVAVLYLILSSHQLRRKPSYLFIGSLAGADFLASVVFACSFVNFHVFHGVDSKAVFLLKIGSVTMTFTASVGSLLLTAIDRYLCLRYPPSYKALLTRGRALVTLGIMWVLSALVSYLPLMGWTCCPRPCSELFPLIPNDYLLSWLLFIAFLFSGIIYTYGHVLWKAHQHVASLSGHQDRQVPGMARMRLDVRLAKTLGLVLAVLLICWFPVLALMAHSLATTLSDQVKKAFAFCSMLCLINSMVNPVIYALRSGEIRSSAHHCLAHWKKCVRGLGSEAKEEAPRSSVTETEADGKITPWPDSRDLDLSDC

On to `C=CC(C)(C)[C@@]12C[C@H]3C(=O)N4[C@@H](C[C@@]5(C(C)(C)C=C)c6ccccc6N[C@@H]45)C(=O)N3[C@@H]1Nc1ccccc12` [AMAUROMINE], for which the outcome in experiment [1] was inactive. Further, in experiment [2], the Ki (in general, the equilibrium dissociation constant of an inhibitor or competing ligand from its target) was 178 nM.
